These results are taken from patent US12630602B2, “Methods and compositions for treating diseases and disorders of the nervous system” (Rutgers, The State University of New Jersey, priority 2016, dated 2026).

This series deals with retinal cells expressing the inhibitory hM4Di DREADD. Description: Electroretinography (ERG) after CNO in rats expressing hM4Di DREADD in retina. In kind it is in vivo.

SMILES strings stand for the structures.

For `C[N+]1([O-])CCN(C2=Nc3cc(Cl)ccc3Nc3ccccc32)CC1` [CNO, clozapine N-oxide], under “CNO by intraperitoneal injection, 20 minutes after, rats with AAV-hSyn-hM4Di (FIG. 2C)”, the ERG wave entry was “inhibition of the ERG wave”. Also, the “ERG, function in retinal cells” value (CNO eye drops, 10 minutes and 20 minutes after, rats with AAV-hSyn-hM4Di (FIG. 2D)) is “decreased function in retinal cells at both timepoints”. The “eliciting DREADD function, eye drops versus systemic delivery” value (ERG, CNO via eye drops compared with systemic delivery) is “at least as successful”.
